The subject of test [1] is human multiple myeloma cell line, OPM-2. In words: Cell viability assay (OPM-2 10 FBS), CellTiter-Glo. The class given is cell-based. In outline: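 Steps: plate cells at 3000/well in 10% FBS growth medium, add serially diluted compound, incubate 16 h at 37 °C with 5% CO2, add detection reagent and read luminescence after 25 min. A 4-parameter logistic model gives IC50.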
Background: ATP-based viability assays read luminescence as a measure of living cells.

Test [2] has as its target recombinant human Mcl-1 (residues 171-327) / Bim interaction (Homo sapiens (Human), UniProt Q07820). The test is described as follows: biochemical. The class given is binding. Conditions: read-out: Mcl-1 HTRF IC50.
Protocol: The inhibition of the Mcl-1/Bim interaction was measured using a time-resolved fluorescence resonance energy transfer (TR-FRET) assay. […] The TR-FRET assay was conducted in a 384-well white OptiPlate™ (PerkinElmer, Waltham, Mass.) in a total volume of 40 μL. The reaction mixture contained 0.1 nM Mcl-1(171-327), 0.05 nM biotin-Bim (51-76), 0.05 nM LANCE® Eu-W1024 Anti-6×His (PerkinElmer), 0.072 nM Streptavidin-Xlent (Cisbio, Bedford, Mass.), and serially diluted test compounds in the binding buffer of 20 mM Hepes, pH 7.5, 150 mM NaCl, 0.016 mM Brij®35, and 1 mM dithiothreitol. Test compounds were pre-incubated with Mcl-1(171-327) and biotin-Bim (51-76) for 60 min before addition of the detection mixture (LANCE® Eu-W1024 Anti-6×His and Streptavidin-Xlent). The reaction plates were further incubated overnight and then were read on an Envision® multimode reader (PerkinElmer). Fluorescence signals were measured at 620 nm (40-nm bandwidth) and 665 nm (7.5-nm bandwidth) with a 60 is delay after excitation at 320 nm (75-nm bandwidth). The signal ratio at 665/620 nm corresponded to the Mcl-1/Bim interaction and was used in all data analyses. The IC50 values of test compounds were determined from duplicate data by analyzing competition curves using a four-parameter sigmoidal model in GraphPad Prism (GraphPad Software, San Diego, Calif.) or in Genedata Screener® (Genedata, Basel, Switzerland).
Where [3] appears, read: Homo sapiens, OPM-2, 16 h, read-out: OPM-2 10% FBS IC50 IP, OPM-2 cells, 10% FBS, 16 h, CellTiter-Glo.
Setting [4] is: TR-FRET, Mcl-1(171-327) / biotin-Bim (51-76).
Setting [5] is: Homo sapiens, OPM-2, 16 h, read-out: OPM-2 10% FBS IC50 IP, OPM-2 cells, 10% FBS, 16 h incubation.
Setting [6] is: 0.1 nM Mcl-1(171-327), 0.05 nM biotin-Bim (51-76).
[7] abbreviates: read-out: OPM-2 10% FBS IC50 IP, OPM-2 cells, 10% FBS, 16 h, CellTiter-Glo.
[8] abbreviates: read-out: OPM-2 10% FBS IC50 IP, OPM-2 cells, 10% FBS, 16 h incubation.

The structures appear in SMILES notation. Like-named read-outs stand apart in the source and are kept apart here.

recombinant human Mcl-1 (residues 171-327) / Bim interaction, sequence (Q07820 171-327): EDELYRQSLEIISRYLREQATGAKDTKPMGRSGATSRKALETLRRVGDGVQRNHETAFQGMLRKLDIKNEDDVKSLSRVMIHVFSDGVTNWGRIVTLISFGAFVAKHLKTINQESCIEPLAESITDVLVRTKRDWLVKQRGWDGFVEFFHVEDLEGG

In general, IC50 refers to the midpoint of a concentration-inhibition curve. `COc1ccc([C@@]2(O)/C=C/C[C@H](C)[C@@H](C)S(=O)(=O)NC(=O)c3ccc4c(c3)N(C[C@@H]3CC[C@H]32)C[C@@]2(CCCc3cc(Cl)ccc32)CO4)cn1` (single isomer, unassigned) [Example 100362]: the IC50 was 2.1 µM in test [1] (setting [3]) and 0.000888 µM in test [2] (setting [4]).
For the molecule `C[C@@H]1[C@@H](C)C/C=C/[C@@](O)([C@@H](O)C(=O)N(C)C)[C@@H]2CC[C@H]2CN2C[C@@]3(CCCc4cc(Cl)ccc43)COc3ccc(cc32)C(=O)NS1(=O)=O` [Example 100289, (2R)-2-((1S,3′R,6′R,7′S,8′E,11′S,12′R)-6-chloro-7′-hydroxy-11′,12′-dimethyl-13′,13′-dioxido-15′-oxo-3,4-dihydro-2H-spiro[naphthalene-1,22′-[20]oxa[13]thia[1,14]diazatetracyclo [14.7.2.0~3,6~.0~19,24~]pentacosa[8,16,18,24]tetraen]-7′-yl)-2-hydroxy-N,N-dimethylethanamide], the IC50 in test [1] (setting [3]) is 3.96 µM; in test [2] (setting [4]), 0.000878 µM.
For `C[C@@H]1[C@@H](C)C/C=C/[C@](C)(O)[C@@H]2CC[C@H]2CN2C[C@@]3(CCCc4cc(Cl)ccc43)COc3ccc(nc32)C(=O)NS1(=O)=O` (single isomer, unassigned) [Example 100600], the IC50 came out at 0.528 µM in test [1] (setting [3]) and 0.000445 µM in test [2] (setting [4]).
On to `CO[C@@]1(C(C)(C)O)/C=C/C[C@H](C)[C@@H](C)S(=O)(=O)NC(=O)c2ccc3c(c2)N(C[C@@H]2CC[C@H]21)C[C@@]1(CCCc2cc(Cl)ccc21)CO3` [Example 100404, (1S,3′R,6′R,7′S,8′E,11′S,12′R)-6-chloro-7′-(2-hydroxy-2-propanyl)-7′-methoxy-11′,12′-dimethyl-3,4-dihydro-2H,15′H-spiro[naphthalene-1,22′-[20]oxa[13]thia[1,14]diazatetracyclo [14.7.2.0~3,6~.0~19,24~]pentacosa[8,16,18,24]tetraen]-15′-one 13′,13′-dioxide], for which the IC50 in test [1] (setting [3]) is 8.15 µM; in test [2] (setting [4]), 0.00255 µM.
Take `COC[C@@H]1[C@@H](C)C/C=C/[C@](CN2CCN(C3COC3)CC2)(OC)[C@@H]2CC[C@H]2CN2C[C@@]3(CCCc4cc(Cl)ccc43)COc3ccc(cc32)C(=O)NS1(=O)=O` [Example 170, (1S,3′R,6′R,7′S,8′E,11′S,12′S)-6-chloro-7′-methoxy-12′-(methoxymethyl)-11′-methyl-7′-((4-(3-oxetanyl)-1-piperazinyl)methyl)-3,4-dihydro-2H,15′H-spiro[naphthalene-1,22′-[20]oxa[13]thia[1,14]diazatetracyclo [14.7.2.0~3,6~.0~19,24~]pentacosa[8,16,18,24]tetraen]-15′-one 13′,13′-dioxide]: the IC50 in test [1] (setting [5]) worked out at 0.075 µM; in test [2] (setting [6]), 0.000131 µM.
In the case of `CC#C[C@]1(O)CCC[C@H](C)[C@@H](C)S(=O)(=O)NC(=O)c2ccc3c(c2)N(C[C@@H]2CC[C@H]21)C[C@@]1(CCCc2cc(Cl)ccc21)CO3` [Example 100267, (1S,3′R,6′R,7′S,11′S,12′R)-6-chloro-7′-hydroxy-11′,12′-dimethyl-7′-(1-propyn-1-yl)-3,4-dihydro-2H,15′H-spiro[naphthalene-1,22′-[20]oxa[13]thia[1,14]diazatetracyclo [14.7.2.0~3,6~.0~19,24~]pentacosa[16,18,24]trien]-15′-one 13′,13′-dioxide], the results for the IC50 in test [1] (setting [7]) and in test [2] were 0.274 µM and 0.000166 µM, respectively.
Turning to `C[C@@H]1[C@@H](C)C/C=C/[C@@]2(COCCO2)[C@@H]2CC[C@H]2CN2C[C@@]3(CCCc4cc(Cl)ccc43)COc3ccc(cc32)C(=O)NS1(=O)=O` [Example 100264, (2S,3′R,6′R,8′E,11′S,12′R,22′S)-6″-chloro-11′,12′-dimethyl-3″,4″-dihydro-2″H,15′H-dispiro[1,4-dioxane-2,7′-[20]oxa[13]thia[1,14]diazatetracyclo [14.7.2.0~3,6~.0~19,24~]pentacosa[8,16,18,24]tetraene-22′,1″-naphthalen]-15′-one 13′,13′-dioxide], the IC50 in test [1] (setting [7]) was 0.6 µM; in test [2] (setting [4]), 0.000384 µM.
With `CO[C@]1(CN2CCN(C(C)C)C(=O)C2)/C=C/C[C@H](C)[C@@H](C)S(=O)(=O)NC(=O)c2ccc3c(c2)N(C[C@@H]2CC[C@H]21)C[C@@]1(CCCc2cc(Cl)ccc21)CO3` [Example 323, (1S,3′R,6′R,7′R,8′E,11′S,12′R)-6-chloro-7′-methoxy-11′,12′-dimethyl-7′-((4-(1-methylethyl)-3-oxo-1-piperazinyl)methyl)-3,4-dihydro-2H,15′H-spiro[naphthalene-1,22′-[20]oxa[13]thia[1,14]diazatetracyclo [14.7.2.0~3,6~.0~19,24~]pentacosa[8,16,18,24]tetraen]-15′-one 13′,13′-dioxide], the half-maximal inhibitory concentration (IC50) stood at 0.169 µM in test [1] (setting [5]) and 0.000166 µM in test [2] (setting [6]).
On to `C[C@@H]1[C@@H](C)C/C=C/[C@](O)(c2nccn2C)[C@@H]2CC[C@H]2CN2C[C@@]3(CCCc4cc(Cl)ccc43)COc3ccc(cc32)C(=O)NS1(=O)=O` [Example 100198, (1S,3′R,6′R,7′R,8′E,11′S,12′R)-6-chloro-7′-hydroxy-11′,12′-dimethyl-7′-(1-methyl-1H-imidazol-2-yl)-3,4-dihydro-2H,15′H-spiro[naphthalene-1,22′-[20]oxa[13]thia[1,14]diazatetracyclo [14.7.2.0~3,6~.0~19,24~]pentacosa[8,16,18,24]tetraen]-15′-one 13′,13′-dioxide], for which the IC50 was determined as 0.399 µM in test [1] (setting [7]) and 0.000307 µM in test [2] (setting [4]).
Consider `C[C@@H]1[C@@H](C)CCCC2(CN3CCOC[C@H]3CO2)[C@@H]2CC[C@H]2CN2C[C@@]3(CCCc4cc(Cl)ccc43)COc3ccc(cc32)C(=O)NS1(=O)=O` (stereo partly drawn) [Example 400, (1S,3′R,6′R,7′S,9a″S,11′S,12′R)-6-chloro-11′,12′-dimethyl-3,4,6″,7″,9″,9a″-hexahydro-1″H,2H,15′H-dispiro[naphthalene-1,22′-[20]oxa[13]thia[1,14]diazatetracyclo[14.7.2.0-3,6˜.0˜19,24˜]pentacosa[16,18,24]triene-7′,3″-[1,4]oxazino[3,4-c][1,4]oxazin]-15′-one 13′,13′-dioxide], for which the IC50 in test [1] (setting [8]) amounted to 2.87 µM; in test [2] (setting [6]) it was 0.0011 µM.
With `C[C@@H]1[C@@H](C)C/C=C/[C@]2(CNC(=O)O2)[C@@H]2CC[C@H]2CN2C[C@@]3(CCCc4cc(Cl)ccc43)COc3ccc(cc32)C(=O)NS1(=O)=O` (single isomer, unassigned) [Example 128], the results for the IC50 in test [1] (setting [8]) and in test [2] (setting [6]) were 19.6 µM and 0.000256 µM, respectively.
Take `C[C@@H]1[C@@H](C)C/C=C/[C@](O)(C(F)(F)C(=O)N(C)C)[C@@H]2CC[C@H]2CN2C[C@@]3(CCCc4cc(Cl)ccc43)COc3ccc(cc32)C(=O)NS1(=O)=O` [Example 100413, 2-((1S,3′R,6′R,7′R,8′E,11′S,12′R)-6-chloro-7′-hydroxy-11′,12′-dimethyl-13′,13′-dioxido-15′-oxo-3,4-dihydro-2H-spiro[naphthalene-1,22′-[20]oxa[13]thia[1,14]diazatetracyclo [14.7.2.0~3,6~.0~19,24~]pentacosa[8,16,18,24]tetraen]-7′-yl)-2,2-difluoro-N,N-dimethylacetamide]: the IC50 in test [1] (setting [3]) was determined as 0.556 µM; in test [2] (setting [4]) it was 0.000228 µM.

(Values after US10821115B2, “Compounds that inhibit Mcl-1 protein” (priority 2017, dated 2020).)
